Reference: ChEMBL document CHEMBL1201862, “PubChem BioAssay data set” (2004)
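Results reflect a 48-hour exposure of cells in 96-well plates to compound at five concentrations. At the GI50, growth is halved.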 The source made the active and inactive calls. Rule as the data show it: active = GI50 up to about 1.1 µM and inactive = higher.

Key:
Assay in all cases: growth of human tumour cells (NCI), 48 h
786-0 = system: 786-0
TK-10 = system: TK-10
T47D = system: T47D
HT-29 = system: HT-29
CCRF-CEM = system: CCRF-CEM
NCI-H23 = system: NCI-H23
KM-20L2 = system: KM-20L2
HL-60 = system: HL-60
UACC-62 = system: UACC-62
MDA-MB-435 = system: MDA-MB-435
EKVX = system: EKVX
M14 = system: M14
MDA-MB-231 = system: MDA-MB-231
A498 = system: A498
DU-145 = system: DU-145
MDA-N = system: MDA-N
HCT-116 = system: HCT-116
Hs-578T = system: Hs-578T
RPMI-8226 = system: RPMI-8226
HOP-62 = system: HOP-62

Measured: GI50

N=c1nc(N)c2cc3c(N)nc(=N)c3cc12
inactive: 786-0 4.86 µM | TK-10 15.3 µM | T47D 8.51 µM | HT-29 82.2 µM | CCRF-CEM 2.28 µM | NCI-H23 35.3 µM | KM-20L2 > 100 µM | HL-60 2.02 µM | UACC-62 3.72 µM | MDA-MB-435 3.19 µM | EKVX 25.2 µM | M14 2.47 µM | MDA-MB-231 2.69 µM | A498 > 9.27 µM | DU-145 30.5 µM | MDA-N 2.05 µM | HCT-116 4.55 µM | Hs-578T 36.1 µM | RPMI-8226 3.13 µM | HOP-62 12.4 µM

O=C(O)c1ccc(C2COc3ccc(Cl)cc3C2)cc1 (stereo not given)
inactive: 786-0 > 100 µM | TK-10 > 100 µM | HT-29 > 100 µM | CCRF-CEM > 100 µM | NCI-H23 > 100 µM | KM-20L2 > 100 µM | HL-60 > 100 µM | UACC-62 > 100 µM | EKVX > 100 µM | M14 > 100 µM | A498 > 100 µM | HCT-116 > 100 µM | RPMI-8226 > 100 µM | HOP-62 > 100 µM

CC1=C(C(=O)Nc2ccccc2C)C(c2ccc(C3C(C(=O)Nc4ccccc4C)=CNC=C3C(=O)Nc3ccccc3C)cc2)C(C(=O)Nc2ccccc2C)=C(C)N1
inactive: 786-0 15.1 µM | TK-10 49.7 µM | HT-29 14.4 µM | CCRF-CEM 3.15 µM | NCI-H23 19.1 µM | KM-20L2 14.7 µM | HL-60 8 µM | UACC-62 12.7 µM | EKVX 17.9 µM | M14 16.8 µM | A498 20.7 µM | HCT-116 19.5 µM | RPMI-8226 15.8 µM | HOP-62 25.4 µM

CC(=O)O[C@H]1CSC[C@@H](OC(C)=O)C1[N+](=O)[O-] (stereo not given in full)
inactive: 786-0 19.2 µM | TK-10 > 100 µM | HT-29 48.2 µM | CCRF-CEM 19.5 µM | NCI-H23 > 100 µM | KM-20L2 > 100 µM | HL-60 23.2 µM | UACC-62 65.8 µM | EKVX > 100 µM | M14 29.6 µM | A498 > 100 µM | HCT-116 95.3 µM | RPMI-8226 22.5 µM | HOP-62 > 100 µM

O=C1c2cccc3c(Cl)ccc(c23)C(=O)N1CCCN1CCN(CCCN2C(=O)c3cccc4c(Cl)ccc(c34)C2=O)CC1
inactive: 786-0 64.4 µM | TK-10 > 100 µM | HT-29 > 100 µM | CCRF-CEM > 100 µM | NCI-H23 97.1 µM | KM-20L2 46.2 µM | HL-60 > 100 µM | UACC-62 > 100 µM | EKVX > 100 µM | M14 > 100 µM | A498 > 100 µM | HCT-116 66.7 µM | RPMI-8226 > 100 µM | HOP-62 > 100 µM

COc1cc(/C=C/C(=O)Oc2ccccc2)ccc1C(=O)O/C=C/c1ccccc1
inactive: 786-0 > 100 µM | TK-10 > 100 µM | T47D > 100 µM | HT-29 > 100 µM | CCRF-CEM 17.7 µM | NCI-H23 > 100 µM | KM-20L2 > 100 µM | HL-60 > 100 µM | UACC-62 > 100 µM | MDA-MB-435 > 100 µM | EKVX > 100 µM | M14 > 100 µM | MDA-MB-231 > 100 µM | A498 > 21.5 µM | DU-145 > 100 µM | MDA-N > 100 µM | HCT-116 > 100 µM | Hs-578T > 100 µM | RPMI-8226 > 100 µM | HOP-62 > 100 µM

CN1CCC(=O)/C(=C/c2ccccc2)C1
inactive: 786-0 12.5 µM | TK-10 16.1 µM | HT-29 3.32 µM | CCRF-CEM 8.93 µM | NCI-H23 17.5 µM | KM-20L2 12.4 µM | HL-60 9.35 µM | UACC-62 21.9 µM | EKVX 23 µM | M14 13.2 µM | A498 18.5 µM | HCT-116 1.78 µM | RPMI-8226 2.86 µM | HOP-62 20.6 µM

COc1ccc(C(N)=O)cc1/N=N/N(C)C
inactive: 786-0 > 100 µM | TK-10 > 100 µM | HT-29 > 100 µM | CCRF-CEM > 100 µM | NCI-H23 > 100 µM | KM-20L2 > 100 µM | HL-60 > 100 µM | UACC-62 > 100 µM | EKVX > 100 µM | M14 > 100 µM | A498 > 100 µM | HCT-116 > 100 µM | RPMI-8226 > 100 µM | HOP-62 > 100 µM

COC(=O)c1cc2c(nc1C)-c1ccccc1OS2(=O)=O
inactive: 786-0 70 µM | TK-10 83.2 µM | HT-29 > 100 µM | CCRF-CEM > 100 µM | NCI-H23 > 100 µM | KM-20L2 > 100 µM | HL-60 > 100 µM | UACC-62 > 100 µM | EKVX > 100 µM | M14 > 100 µM | A498 > 100 µM | HCT-116 > 100 µM | RPMI-8226 > 100 µM | HOP-62 27.5 µM

Nc1nc2[nH]cnc2c(=S)[nH]1 [THIOGUANINE]
inactive: T47D 2.07 µM | HT-29 1.13 µM | EKVX 2.03 µM | MDA-MB-231 2.51 µM | A498 6.68 µM | Hs-578T 6.28 µM
active: 786-0 0.796 µM | TK-10 0.962 µM | CCRF-CEM 0.169 µM | NCI-H23 1.1 µM | KM-20L2 0.782 µM | HL-60 1.11 µM | UACC-62 0.537 µM | MDA-MB-435 0.851 µM | M14 0.56 µM | DU-145 0.776 µM | MDA-N 1.01 µM | HCT-116 0.538 µM | RPMI-8226 0.438 µM | HOP-62 0.78 µM

O=C(CCn1[nH]c(=O)c(Cl)c(Cl)c1=O)NOCCCc1ccccc1
inactive: 786-0 > 100 µM | TK-10 > 100 µM | HT-29 > 100 µM | CCRF-CEM > 100 µM | NCI-H23 > 100 µM | KM-20L2 > 100 µM | HL-60 > 100 µM | UACC-62 > 100 µM | EKVX > 100 µM | M14 > 100 µM | A498 > 100 µM | HCT-116 > 100 µM | RPMI-8226 > 100 µM | HOP-62 > 100 µM

Nc1nncs1
inactive: 786-0 4080 µM | TK-10 > 5000 µM | T47D > 3040 µM | HT-29 211 µM | CCRF-CEM 1010 µM | NCI-H23 1640 µM | KM-20L2 301 µM | HL-60 2080 µM | UACC-62 1910 µM | MDA-MB-435 1630 µM | EKVX 1320 µM | M14 1580 µM | MDA-MB-231 2320 µM | A498 867 µM | DU-145 2070 µM | MDA-N 1950 µM | HCT-116 1500 µM | Hs-578T 1620 µM | RPMI-8226 991 µM | HOP-62 724 µM

O=C1/C(=C/c2ccc(Br)cc2)CCC/C1=C\c1ccc(Br)cc1
inactive: 786-0 11.9 µM | TK-10 27.5 µM | HT-29 1.88 µM | CCRF-CEM 5.11 µM | NCI-H23 5.69 µM | KM-20L2 5.22 µM | HL-60 3.18 µM | UACC-62 15.1 µM | EKVX 24.2 µM | M14 3.03 µM | A498 5.32 µM | HCT-116 1.73 µM | RPMI-8226 2.04 µM | HOP-62 20 µM

CCCCNCCCNCCCNC(=O)c1csc(-c2csc(CCNC(=O)C(NC(=O)C(C)C(O)C(C)NC(=O)C(NC(=O)c3nc(C(CC(N)=O)NCC(N)C(N)=O)nc(N)c3C)C(OC3OC(CO)C(O)C(O)C3OC3OC(CO)C(O)C(OC(N)=O)C3O)c3c[nH]cn3)C(C)O)n2)n1 (stereo not given)
inactive: TK-10 17.3 µM | T47D 12.9 µM | HT-29 25.1 µM | CCRF-CEM 15.6 µM | KM-20L2 61.5 µM | HL-60 14.9 µM | MDA-MB-435 18.7 µM | EKVX 14 µM | M14 1.43 µM | MDA-MB-231 30.3 µM | A498 3.65 µM | DU-145 11.1 µM | Hs-578T 8.79 µM | RPMI-8226 > 50 µM
active: 786-0 0.167 µM | NCI-H23 0.083 µM | UACC-62 0.362 µM | HCT-116 0.0998 µM | HOP-62 0.174 µM
